{"source": "paper PMC4450769", "about": "“Placement of oppositely charged aminoacids at a polypeptide termini determines the voltage-controlled braking of polymer transport through nanometer-scale pores” (Scientific Reports, 2015)", "test_system": "Staphylococcus aureus α-hemolysin (α-HL) pore", "type": "biochemical"}
{"substance": "Ac-RRRRRRAAAAAARRRRRR- NH 2 [CP2, control peptide construct with net charge of ~ +6 e− at both N- and C-termini at neutral pH]", "values": [{"measurement": "capture by the pore as a function of potential polarity", "setting": "5 µM", "result": "captured by the pore only for positive potentials"}, {"measurement": "association with and block of the α-HL pore at negatively applied potential", "setting": "pH 7.3", "result": "does not associate and block"}]}
